Columns and labels:
[1] = test system: Influenza A/TW/70058/09 (H1N1); experiment: microbe, parasite or virus in culture; type: cell-based; conditions: H1N1, read-out: EC50 on the inhibition of replication (viral plaque reduction assay)
[2] = test system: Influenza A/TW/70066/09 (H1N1); experiment: microbe, parasite or virus in culture; type: cell-based; conditions: H1N1, read-out: EC50 on the inhibition of replication (viral plaque reduction assay)

Compound Nc1c(S(=O)(=O)O)cc(Nc2cccc(S(=O)(=O)CCOS(=O)(=O)O)c2)c2c1C(=O)c1ccccc1C2=O [RB19, remazol brilliant blue R] has an EC50 [1] of 9.8 µM and an EC50 [2] of 11.9 µM.
